The text below walks through data of patent US11053242B2, “[9,10-dimethoxy-3-(2-methylpropyl)-1H,2H,3H,4H,6H,7H,11BH-pyrido-[2,1-a]isoquinolin-2-yl]methanol and compounds, compositions and methods relating thereto” (Neurocrine Biosciences, Inc., priority 2015, dated 2021).

Series [1] in a line: In vitro human intestinal S9 hydrolysis assay (formation of compound 1-1). To be noted: human intestinal S9, 1 uM, 37° C., up to 60 minutes.
Series [2] has as its target VMAT2 (human platelet homogenate) (Homo sapiens (Human), UniProt Q05940). Nature of the series: Human VMAT2 Ki, slightly modified competition binding procedure (Table 11).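 Further: competition binding with 90 min incubation at 25 °C, after which filter-retained radioligand was measured by scintillation counting.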 The following applies: 10 nM 3H-dihydrotetrabenazine.
Protocol: Following incubation at 25° C. for 90 minutes, bound radioligand was collected by rapid filtration onto GF/B glass fiber filters using a Unifilter-96 Harvester (PerkinElmer). Filter plates were pre-treated with 0.1% polyethylenimine and allowed to dry overnight, and following harvesting the filter plates were washed with 800 d VMAT2 binding buffer. Bound radioligand was quantified by scintillation counting using a Topcount NXT (PerkinElmer).

Chain of VMAT2 (human platelet homogenate) (Q05940 whole entry): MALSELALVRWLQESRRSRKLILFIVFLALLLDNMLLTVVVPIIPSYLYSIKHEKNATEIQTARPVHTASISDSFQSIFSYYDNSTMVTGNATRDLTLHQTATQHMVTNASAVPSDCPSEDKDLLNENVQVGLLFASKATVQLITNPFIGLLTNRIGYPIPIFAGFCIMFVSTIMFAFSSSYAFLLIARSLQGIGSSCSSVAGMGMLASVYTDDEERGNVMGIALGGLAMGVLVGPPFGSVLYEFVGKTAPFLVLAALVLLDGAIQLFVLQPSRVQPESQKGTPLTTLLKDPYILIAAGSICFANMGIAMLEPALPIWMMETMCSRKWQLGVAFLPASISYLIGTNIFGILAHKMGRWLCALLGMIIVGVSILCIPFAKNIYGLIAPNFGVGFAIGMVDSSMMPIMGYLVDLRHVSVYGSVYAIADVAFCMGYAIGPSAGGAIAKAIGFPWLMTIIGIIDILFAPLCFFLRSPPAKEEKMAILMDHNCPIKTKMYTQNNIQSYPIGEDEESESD

Usually Ki stands for the dissociation constant of the complex between target and ligand, obtained from inhibition or displacement. Read a low Ki as higher affinity. Turning to `COc1cc2c(cc1OC)[C@H]1C[C@@H](COC(=O)NC3(C(=O)O)CC3)[C@H](CC(C)C)CN1CC2` [Compound 5-5, 1-[({[(2R,3S,11bR)-9,10-dimethoxy-3-(2-methylpropyl)-1H,2H,3H,4H,6H,7H,11bH-pyrido[2,1-a]isoquinolin-2-yl]methoxy}carbonyl)amino]cyclopropane-1-carboxylic acid], the “S9 Assay (ability to form compound 1-1)” value in series [1] is “+”. Moreover, in series [2], the Ki was 10 to 500 nM.

Consider `COc1cc2c(cc1OC)[C@H]1C[C@@H](COC(=O)N3CCC(C(=O)O)CC3)[C@H](CC(C)C)CN1CC2` [Compound 5-52, 1-({[(2R,3S,11bR)-9,10-dimethoxy-3-(2-methylpropyl)-1H,2H,3H,4H,6H,7H,11bH-pyrido[2,1-a]isoquinolin-2-yl]methoxy}carbonyl)piperidine-4-carboxylic acid], for which the “S9 Assay (ability to form compound 1-1)” value in series [1] is recorded as “+”. Moreover, the Ki in series [2] was above 500 nM.

`COc1cc2c(cc1OC)[C@H]1C[C@@H](COC(=O)NC3CCCCC3C(=O)O)[C@H](CC(C)C)CN1CC2` (stereo partly drawn) [Compound 5-41, 2-[({[(2R,3S,11bR)-9,10-dimethoxy-3-(2-methylpropyl)-1H,2H,3H,4H,6H,7H,11bH-pyrido[2,1-a]isoquinolin-2-yl]methoxy}carbonyl)amino]cyclohexane-1-carboxylic acid]: the “S9 Assay (ability to form compound 1-1)” value in series [1] is given as “+”. The same molecule gave a Ki in series [2] of 10 to 500 nM.

Take `COc1cc2c(cc1OC)[C@H]1C[C@@H](COC(=O)N(C)[C@H](C)C(=O)O)[C@H](CC(C)C)CN1CC2` [Compound 5-17, (2R)-2-[({[(2R,3S,11bR)-9,10-dimethoxy-3-(2-methylpropyl)-1H,2H,3H,4H,6H,7H,11bH-pyrido[2,1-a]isoquinolin-2-yl]methoxy}carbonyl)(methyl)amino]propanoic acid]: in series [1], the “S9 Assay (ability to form compound 1-1)” value is listed as “+”. In series [2], this molecule returned a Ki of 10 to 500 nM.

As for `COc1cc2c(cc1OC)[C@H]1CC(COC(=O)CC(C)(C)C(=O)O)[C@H](CC(C)C)CN1CC2` (stereo partly drawn) [Compound 3-7, 4-{[(3S,11bR)-9,10-dimethoxy-3-(2-methylpropyl)-1H,2H,3H,4H,6H,7H,11bH-pyrido[2,1-a]isoquinolin-2-yl]methoxy}-2,2-dimethyl-4-oxobutanoic acid], in series [1], the “S9 Assay (ability to form compound 1-1)” value is reported as “+”. Besides, in series [2], the Ki lay within 10 to 500 nM.

On to `COc1cc2c(cc1OC)[C@H]1C[C@@H](COC(=O)N(C)CC(=O)O)[C@H](CC(C)C)CN1CC2` [Compound 5-42, 2-[({[(2R,3S,11bR)-9,10-dimethoxy-3-(2-methylpropyl)-1H,2H,3H,4H,6H,7H,11bH-pyrido[2,1-a]isoquinolin-2-yl]methoxy}carbonyl)(methyl)amino]acetic acid], for which, in series [1], the “S9 Assay (ability to form compound 1-1)” value is “++”. The inhibition constant Ki in series [2] lay within 10 to 500 nM.

In the case of `COc1cc2c(cc1OC)[C@H]1C[C@@H](COC(=O)C3CCNC3)[C@H](CC(C)C)CN1CC2` (stereo partly drawn) [Compound 4-8, [(2R,3S,11bR)-9,10-dimethoxy-3-(2-methylpropyl)-1H,2H,3H,4H,6H,7H,11bH-pyrido[2,1-a]isoquinolin-2-yl]methyl pyrrolidine-3-carboxylate], the “S9 Assay (ability to form compound 1-1)” value in series [1] is “++”. Besides, the Ki in series [2] was below 10 nM.

Turning to `COc1cc2c(cc1OC)[C@H]1C[C@@H](COC(=O)[C@@H]3CCCNC3)[C@H](CC(C)C)CN1CC2` [Compound 4-29, [(2R,3S,11bR)-9,10-dimethoxy-3-(2-methylpropyl)-1H,2H,3H,4H,6H,7H,11bH-pyrido[2,1-a]isoquinolin-2-yl]methyl (3R)-piperidine-3-carboxylate], the “S9 Assay (ability to form compound 1-1)” value in series [1] is “+++”. In addition, the Ki in series [2] was below 10 nM.

On to `COc1cc2c(cc1OC)[C@H]1C[C@@H](COC(=O)N3CCN[C@H](C)C3)[C@H](CC(C)C)CN1CC2` [Compound 6-13, [(2R,3S,11bR)-9,10-dimethoxy-3-(2-methylpropyl)-1H,2H,3H,4H,6H,7H,11bH-pyrido[2,1-a]isoquinolin-2-yl]methyl (3R)-3-methylpiperazine-1-carboxylate], for which the “S9 Assay (ability to form compound 1-1)” value in series [1] is listed as “+”. The molecule further registered a Ki in series [2] below 10 nM.

Consider `COc1cc2c(cc1OC)[C@H]1C[C@@H](COC(=O)[C@@H]3CCNC3)[C@H](CC(C)C)CN1CC2` [Compound 4-26, [(2R,3S,11bR)-9,10-dimethoxy-3-(2-methylpropyl)-1H,2H,3H,4H,6H,7H,11bH-pyrido[2,1-a]isoquinolin-2-yl]methyl (3R)-pyrrolidine-3-carboxylate], for which the “S9 Assay (ability to form compound 1-1)” value in series [1] is reported as “++”. Besides, in series [2], the Ki is below 10 nM.

In the case of `COc1cc2c(cc1OC)[C@H]1C[C@@H](COC(=O)N3CCNC[C@H]3C)[C@H](CC(C)C)CN1CC2` [Compound 6-3, [(2R,3S,11bR)-9,10-dimethoxy-3-(2-methylpropyl)-1H,2H,3H,4H,6H,7H,11bH-pyrido[2,1-a]isoquinolin-2-yl]methyl (2R)-2-methylpiperazine-1-carboxylate], the “S9 Assay (ability to form compound 1-1)” value in series [1] is “+”.

Take `COc1cc2c(cc1OC)[C@H]1C[C@@H](COC(=O)[C@H]3CCN(Cc4ccccc4)C3)[C@H](CC(C)C)CN1CC2` [Compound 2-26, [(2R,3S,11bR)-9,10-dimethoxy-3-(2-methylpropyl)-1H,2H,3H,4H,6H,7H,11bH-pyrido[2,1-a]isoquinolin-2-yl]methyl (3S)-1-benzylpyrrolidine-3-carboxylate]: the Ki in series [2] was below 10 nM.

The molecule `COc1cc2c(cc1OC)[C@H]1C[C@@H](COC(=O)C3CCOCC3)[C@H](CC(C)C)CN1CC2` [Compound 2-22, [(2R,3S,11bR)-9,10-dimethoxy-3-(2-methylpropyl)-1H,2H,3H,4H,6H,7H,11bH-pyrido[2,1-a]isoquinolin-2-yl]methyl oxane-4-carboxylate] yielded a Ki in series [2] below 10 nM.

In series [2], `COc1cc2c(cc1OC)[C@H]1C[C@@H](COC(=O)N3C[C@H](C)NC[C@H]3C)[C@H](CC(C)C)CN1CC2` [Compound 6-2, [(2R,3S,11bR)-9,10-dimethoxy-3-(2-methylpropyl)-1H,2H,3H,4H,6H,7H,11bH-pyrido[2,1-a]isoquinolin-2-yl]methyl (2R,5S)-2,5-dimethylpiperazine-1-carboxylate] yielded a Ki below 10 nM.

Take `COc1cc2c(cc1OC)[C@H]1C[C@@H](COC(=O)C3NCCc4ccccc43)[C@H](CC(C)C)CN1CC2` (stereo partly drawn) [Compound 4-21, [(2R,3S,11bR)-9,10-dimethoxy-3-(2-methylpropyl)-1H,2H,3H,4H,6H,7H,11bH-pyrido[2,1-a]isoquinolin-2-yl]methyl 1,2,3,4-tetrahydroisoquinoline-1-carboxylate]: in series [2], the Ki is 10 to 500 nM.

In series [2], `COc1cc2c(cc1OC)[C@H]1C[C@@H](COC(=O)CC(N)C(C)C)[C@H](CC(C)C)CN1CC2` (stereo partly drawn) [Compound 4-17, [(2R,3S,11bR)-9,10-dimethoxy-3-(2-methylpropyl)-1H,2H,3H,4H,6H,7H,11bH-pyrido[2,1-a]isoquinolin-2-yl]methyl 3-amino-4-methylpentanoate] came in with a Ki below 10 nM.

Molecule `COc1cc2c(cc1OC)[C@H]1C[C@@H](COC(=O)N3CCNC(=O)C3C)[C@H](CC(C)C)CN1CC2` (stereo partly drawn) [Compound 5-21, [(2R,3S,11bR)-9,10-dimethoxy-3-(2-methylpropyl)-1H,2H,3H,4H,6H,7H,11bH-pyrido[2,1-a]isoquinolin-2-yl]methyl 2-methyl-3-oxopiperazine-1-carboxylate] yielded a Ki in series [2] below 10 nM.
